Target: cGMP-specific 3',5'-cyclic phosphodiesterase (Homo sapiens, UniProt O76074)
Test: Inhibitory activity against human Phosphodiesterase 5

Ki	Structure (SMILES)
23.3 nM	Oc1c2c(nc3ccccc13)C(c1ccc3c(c1)OCO3)N(C/C=C/c1ccccc1)C2 (stereo not drawn)
11 nM	CN(Cc1ccccc1)C(=O)N1Cc2c(nc3ccccc3c2O)C1c1ccc2c(c1)OCO2 (stereo not drawn)
0.58 nM	O=C(OCc1ccccc1)N1Cc2c(nc3ccccc3c2O)C1c1ccc2c(c1)OCO2 (stereo not drawn)
4.53 nM	O=C(CCc1ccccc1)N1Cc2c(nc3ccccc3c2O)C1c1ccc2c(c1)OCO2 (stereo not drawn)
113 nM	O=S(=O)(Cc1ccccc1)N1Cc2c(nc3ccccc3c2O)C1c1ccc2c(c1)OCO2 (stereo not drawn)
118 nM	O=S(=O)(/C=C/c1ccccc1)N1Cc2c(nc3ccccc3c2O)C1c1ccc2c(c1)OCO2 (stereo not drawn)
1.06 nM	O=C(NCc1ccccc1)N1Cc2c(nc3ccccc3c2O)C1c1ccc2c(c1)OCO2 (stereo not drawn)
12.5 nM	O=C(Cc1ccccc1)N1Cc2c(nc3ccccc3c2O)C1c1ccc2c(c1)OCO2 (stereo not drawn)

The remaining lines, values behind:

Structure (SMILES)	Ki
O=C(C#Cc1ccccc1)N1Cc2c(nc3ccccc3c2O)C1c1ccc2c(c1)OCO2 (stereo not drawn)	0.35 nM
O=C(OCc1ccncc1)N1Cc2c(nc3ccccc3c2O)C1c1ccc2c(c1)OCO2 (stereo not drawn)	0.29 nM
O=C(/C=C/c1ccccc1)N1Cc2c(nc3ccccc3c2O)C1c1ccc2c(c1)OCO2 (stereo not drawn)	0.22 nM
O=C(OCc1ccncc1)N1Cc2c(nc3ccccc3c2O)[C@@H]1c1ccc2c(c1)OCO2	3.48 nM
O=C(OCc1ccncc1)N1Cc2c(nc3ccccc3c2O)[C@H]1c1ccc2c(c1)OCO2	0.23 nM

— ChEMBL document CHEMBL1148396, “Structure-activity relationships of N-acyl pyrroloquinolone PDE-5 inhibitors” (J Med Chem, 2004)
